Measured values reported in paper PMC12143591, “Unlocking the serine mischarging paradox and inhibiting lactyltransferase activity of AlaRS by a single-point mutation” (Nucleic Acids Research, 2025).
Like-named read-outs stand apart in the source and are kept apart here.

Legend:
Assay in all cases: PPi release assay (pyrophosphatase, BIOMOL Green, […] nm)
Format in all cases: biochemical
AlaRS429 = molecular target: T1, AlaRS429 (Methylomonas sp. DH-1, UniProt Z9JP01Z3Z1, L219M, form not given); conditions: 8 uM tRNA-Ala, 200 uM ATP, 40 mM MgCl2, 1 mM DTT, pH 7.5, 37 °C; read-out: Alanine / K m
T1 construct: residues 1-429 (aminoacylation domain, no editing domain), non-cleavable C-terminal His6 tag, synthetic gene in pET28b(+), E. coli BL21(DE3)

AlaRS (AlaRS^WT) [1] = molecular target: T2, AlaRS (AlaRS^WT) (Methylomonas sp. DH-1, UniProt Z9JP01Z3Z1, L219M, form not given); conditions: 8 uM tRNA-Ala, 200 uM ATP, 40 mM MgCl2, 1 mM DTT, pH 7.5, 37 °C
T2 construct: full-length, pET-28b(+) (BamHI/NotI), Ni-NTA purified from E. coli Rosetta-gami2(DE3)pLysS; tag removal not mentioned

AlaRS (AlaRS^WT) [2] = molecular target: T3, AlaRS (AlaRS^WT) (Methylomonas sp. DH-1, UniProt Z9JP01Z3Z1, L219A, form not given); conditions: 8 uM tRNA-Ala, 200 uM ATP, 40 mM MgCl2, 1 mM DTT, pH 7.5, 37 °C; read-out: Alanine / K m
T3 construct: full-length, pET-28b(+) (BamHI/NotI), Ni-NTA purified from E. coli Rosetta-gami2(DE3)pLysS; tag removal not mentioned

AlaRS (AlaRS^WT) [3] = molecular target: T4, AlaRS (AlaRS^WT) (Methylomonas sp. DH-1, UniProt Z9JP01Z3Z1, L219F, form not given); conditions: 8 uM tRNA-Ala, 200 uM ATP, 40 mM MgCl2, 1 mM DTT, pH 7.5, 37 °C; read-out: Alanine / K m
T4 construct: full-length, pET-28b(+) (BamHI/NotI), Ni-NTA purified from E. coli Rosetta-gami2(DE3)pLysS; tag removal not mentioned

AlaRS (AlaRS^WT) [4] = molecular target: T5, AlaRS (AlaRS^WT) (Methylomonas sp. DH-1, UniProt Z9JP01Z3Z1, V207A/L222M, form not given); conditions: 8 uM tRNA-Ala, 200 uM ATP, 40 mM MgCl2, 1 mM DTT, pH 7.5, 37 °C; read-out: Alanine / K m
T5 construct: full-length, pET-28b(+) (BamHI/NotI), Ni-NTA purified from E. coli Rosetta-gami2(DE3)pLysS; tag removal not mentioned

| Km (AlaRS429) | Km (AlaRS (AlaRS^WT) [1]; read-out: Alanine / K m) | Km (AlaRS (AlaRS^WT) [2]) | Km (AlaRS (AlaRS^WT) [3]) | Km (AlaRS (AlaRS^WT) [4]) | SMILES | Km (AlaRS (AlaRS^WT) [1]; read-out: Glycine / K m) |
| --- | --- | --- | --- | --- | --- | --- |
| 3 ± 1 µM | 9 ± 1 µM | 9 ± 6 µM | 7 ± 3 µM | 145 ± 39 µM | C[C@H](N)C(=O)O [Ala] |  |
|  |  |  |  |  | NCC(=O)O [Gly] | 7910 ± 3280 µM |
